We go through one compound from patent publication US9120728B2, “Modulators of cortical dopaminergic- and NMDA-receptor-mediated glutamatergic neurotransmission” (INTEGRATIVE RESEARCH LABORATORIES SWEDEN AB, priority 2011, dated 2015).

Assay [1] relates to DOPAC (3,4-dihydroxyphenylacetic acid) in the rat striatum. In words: Increase of DOPAC (3,4-dihydroxyphenylacetic acid) in the rat striatum after systemic administration. The assay is classed as in vivo. The following applies: sc, estimated ED50 on increase of DOPAC in rat striatum, dose range 0-100 μmol/kg s.c., curve fitting. From the text:
The increased turnover of dopamine in the terminal areas of the ascending dopaminergic projections of the mammalian brain can be illustrated by measuring of changes in biochemical indices in the brain with the characteristic features of dopamine antagonists, e.g. producing increases in concentrations of dopamine metabolites such as 3,4-dihydroxyphenyl-acetic acid (DOPAC) in the striatum.
After the behavioural activity sessions, the rats are decapitated and their brains rapidly taken out and put on an ice-cold petri-dish. The limbic forebrain, the striatum, the frontal cortex and the remaining hemispheral parts of each rat are dissected and frozen. Each brain part is subsequently analyzed with respect to its content of monoamines and their metabolites.
The monoamine transmitter substances (NA (noradrenaline), DA (dopamine), 5-HT (serotonin)) as well as their amine (NM (normethanephrine), 3-MT (3-methoxytyramine)) and acid (DOPAC (3,4-dihydroxyphenylacetic acid), 5-HIAA (5-hydroxyindoleacetic acid), HVA (homovanillic acid)) metabolites are quantified in brain tissue homogenates by HPLC separations and electrochemical detection
The analytical method is based on two chromatographic separations dedicated for amines or acids. Two chromatographic systems share a common auto injector with a 10-port valve and two sample loops for simultaneous injection on the two systems. Both systems are equipped with a reverse phase column (Luna C18(2), dp 3 μm, 50×2 mm i.d., Phenomenex) and electrochemical detection is accomplished at two potentials on glassy carbon electrodes (MF-1000, Bioanalytical Systems, Inc.). The column effluent is passed via a T-connection to the detection cell or to a waste outlet. This is accomplished by two solenoid valves, which block either the waste or detector outlet. By preventing the chromatographic front from reaching the detector, better detection conditions are achieved. The aqueous mobile phase (0.4 ml/min) for the acid system contains citric acid 14 mM, sodium citrate 10 mM, MeOH 15% (v/v) and EDTA 0.1 mM. Detection potentials relative to Ag/AgCl reference are 0.45 and 0.60V. […] Detection potentials relative to Ag/AgCl reference are 0.45 and 0.65V.
ED50 value for the increase of DOPAC in striatum is calculated by curve fitting. The evaluation is based on 40 animals over the dose range 0, 3.7, 11, 33 and 100 μmol/kg s.c. in two combined experiments. The DOPAC levels are normalised to control and fitted by least square minimization to the function “End-(End-Control)/(1+(dose/ED50)^slope)”. The four parameters (Control, End, ED50 and Slope) are fitted with the restrictions: ED50>0, 0.5<Slope<3, 350<End<400% of control. To estimate confidence levels for the parameters, the fit is repeated 100 times with a random evenly distributed squared weight (0 to 1) for every measurement value. Presented ED50-ranges cover 95% of these values.

Another assay concerns MK-801 pre-treated rats. In words: Reduction of MK-801-induced hyper-locomotion. The assay is classed as in vivo. The note with it: Rattus norvegicus; MK-801 0.7 mg/kg i.p. 90 minutes before test compound; locomotor activity between 45 and 60 minutes after administration; 0-100 μmol/kg s.c. From the text: Reduction of MK-801-Induced Hyper-Locomotion Another animal model of antipsychotic activity is based on administration of the glutamate antagonist MK-801. Glutamate antagonists (i.e. NMDA antagonists), can induce psychoses in man (see Psychopharmacology, 4th Generation of progress Chapter 101, p. 1205 and 1207) and induce behavioural aberrations in animals. Thus, the ability of a drug to affect schizophrenia and psychotic states can be measured using behavioural models based on experimentally-induced hypoglutamatergic states. In this study the NMDA antagonist MK-801 (0.7 mg/kg i.p.) was used to create a hypoglutamatergic state where the rats display abnormal, hyperactive behaviour.
Behavioural activity is measured using eight Digiscan activity monitors (RXYZM (16) TAO, Omnitech Electronics, Columbus, Ohio, USA), connected to an Omnitech Digiscan analyzer and an Apple Macintosh computer equipped with a digital interface board (NB DIO-24, National Instruments, USA). […]
Behavioural data from each activity monitor, representing the position (horizontal center of gravity and vertical activity) of the animal at each time, are recorded at a sampling frequency of 25 Hz and collected using a custom written LABView™ application. The data from each recording session are stored and analyzed with respect to distance traveled. […]

A further assay concerns drug-naive rats. The assay can be described thus: Effects on spontaneous locomotion (locomotor activity in drug-naive rats). The assay is classed as in vivo, rat. The following applies: recorded for 60 minutes immediately after drug administration. The procedure: Prior art dopamine receptor antagonists are known to induce profound decrease in locomotor activity (catalepsy).
Behavioural activity is measured using eight Digiscan activity monitors (RXYZM (16) TAO, Omnitech Electronics, Columbus, Ohio, USA), connected to an Omnitech Digiscan analyzer and an Apple Macintosh computer equipped with a digital interface board (NB DIO-24, National Instruments, USA). Each activity monitor consists of a quadratic metal frame (W×L=40 cm×40 cm) equipped with photobeam sensors. During measurements of behavioural activity, a rat is put in a transparent acrylic cage (WxLxH, 40×40×30 cm) which in turn is placed in the activity monitor. Each activity monitor is equipped with three rows of infrared photobeam sensors, each row consisting of 16 sensors. Two rows are placed along the front and the side of the floor of the cage, at a 90° angle, and the third row is placed 10 cm above the floor to measure vertical activity. Photobeam sensors are spaced 2.5 cm apart. Each activity monitor is fitted in an identical sound and light attenuating box containing a weak house light and a fan.
The computer software is written using object oriented programming (LabVIEW®, National instruments, Austin, Tex., USA).
Behavioural data from each activity monitor, representing the position (horizontal center of gravity and vertical activity) of the animal at each time, are recorded at a sampling frequency of 25 Hz and collected using a custom written LABView™ application. The data from each recording session are stored and analyzed with respect to distance traveled. Each behavioural recording session lasts 60 min, starting approximately 4 min after the injection of test compound. Similar behavioural recording procedures are applied for drug-naïve and drug pre-treated rats. Rats pre-treated with d-amphetamine are given a dose of 1.5 mg/kg i.p. 10 min before the recording session in the activity monitor. Rats pre-treated with MK-801 are given a dose of 0.7 mg/kg i.p. 90 min before the recording session in the activity monitor. The results are presented as counts/60 minutes, or counts/30 minutes, in arbitrary length units. Statistical comparisons are carried out using Student's t-test against the control group. In MK-801 or amphetamine pre-treated animals, statistical comparisons are made against the MK801 or d-amphetamine controls, respectively.

In the case of `CS(=O)(=O)c1cc(F)cc(OCCNC2CCC2)c1` [Example 8, N-[2-(3-fluoro-5-methylsulfonyl-phenoxy)ethyl]cyclobutanamine], the ED50 in assay [1] was 36 µmol/kg; with MK-801 pre-treated rats it was 40 µmol/kg. Further, the figures for the Locomotor activity in the assay on drug-naive rats (3.7 μmol/kg), with drug-naive rats (11 μmol/kg) and in the assay on drug-naive rats (33 μmol/kg) were 10319 counts/60 min, 12888 counts/60 min and 12872 counts/60 min, respectively.

A word on the ED50: it is the midpoint of the dose-response relation.
